Assay results taken from PMC7722985 (Biochemistry, 2015).
Values belong to the substance of their own block, whether it stands above or below them.

How the values were obtained:
[1] = test system: Taz2 domain of p300 (A1723-K1812/C1738A, C1746A, C1789A, C1790A); test: ITC binding of p53; conditions: for Ka: ITC, 20 mM Tris-HCl (pH 7.2), 100 mM NaCl, 2 mM β-mercaptoethanol, 35 °C, 1:1 binding model, performed at least twice, ND = No binding was detected
p300 Taz2 = conditions: cited from earlier work
CBP Taz2 = conditions: α1, α2, α3 surface of Taz2; cited from earlier work
Taz2 R1731A = test: ITC binding of p53; conditions: ITC at 35 °C
Taz2 S1741D = test: ITC binding of p53; conditions: ITC at 35 °C
Taz2 domain of p300 [2] = test: Salt dependence of p53; type: binding; conditions: ITC at 35 °C; similar pH values; 100 mM acetate as opposed to 100 mM NaCl
Taz2 domain of p300 [3] = test: pH dependence of p53 binding to Taz2 by ITC; conditions: between pH 5.9 and 6.8; ITC at 35 °C; 100 mM Tris, 100 mM Bis-Tris, 100 mM acetate
[4] = ITC at 35 °C, pH 7.2, 100 mM NaCl

Substance: p53 D48N: p53(35–59) with mutation of Asp48 to asparagine
Ka [1]: (0.60 ± 0.08) × 10^6 M^−1

Substance: p53 TAD2: second transactivation subdomain of p53 (residues 40–61)
effect of phosphorylation on Taz2 binding (p300 Taz2): unaffected by phosphorylation
affinity for Taz2 (p300 Taz2; p53 TAD2 compared with p53 TAD1): tighter than that of p53 TAD1
binding to CBP Taz2 (CBP Taz2): high affinity

Substance: p53(35–59): p53 TAD2 peptide, residues 35–59, synthesized by solid-phase method or expressed as GST fusion
reduction in binding affinity vs wild-type Taz2 (Taz2 R1731A): 3 fold
effect of phosphorylation on Taz2 binding (p300 Taz2): does not significantly affect binding
effect of Taz2 mutation on binding (Taz2 S1741D): did not affect binding
affinity in 100 mM acetate vs 100 mM NaCl (Taz2 domain of p300 [2]): significantly higher

Substance: p53(1–57): p53(1–57), both TAD subdomains
overall affinity for Taz2 relative to single subdomains (p300 Taz2): overall affinity higher than that of either interaction alone

Substance: W53A/F54A double mutation of p53(25–65): W53A/F54A double mutation of p53(25–65)
Taz2 binding of double mutant (p300 Taz2): abrogated Taz2 binding

Substance: p53(1–39): p53 TAD1, residues 1–39 [reference compound]
pH dependence of affinity for Taz2, pH 5.9 to 6.8 (Taz2 domain of p300 [3]): not dependent upon pH between pH 5.9 and 6.8

Substance: p53 TAD1: first transactivation subdomain of p53 (residues 1–39)
effect of phosphorylation on Taz2 binding (p300 Taz2): increased its affinity for p300 Taz2
binding to CBP Taz2 (CBP Taz2): high affinity

Second part, the substance after the results:

Ka [1]: (0.91 ± 0.04) × 10^6 M^−1
Substance: p53 L45A: p53(35–59) mutant peptide L45A

detectable binding to Taz2 ([1]; ITC at 35 °C): loss of detectable binding
Substance: p53 W53Q: p53(35–59) with Trp53 mutated to glutamine (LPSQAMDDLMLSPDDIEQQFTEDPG)

Ka [1]: (1.32 ± 0.05) × 10^6 M^−1
Substance: p53 M40A: p53(35–59) mutant peptide M40A

Ka [1]: (1.30 ± 0.05) × 10^6 M^−1
Substance: p53 pThr55: p53(35–59) phosphorylated at Thr55

weaker binding to Taz2 than wild-type [1, 4]: 3 fold
Ka [1]: (0.31 ± 0.01) × 10^6 M^−1
Substance: p53 I50A: p53(35–59) mutant peptide I50A

Ka [1]: (0.56 ± 0.13) × 10^6 M^−1
Substance: p53 E51Q: p53(35–59) with mutation of Glu51 to glutamine

Ka [1]: (1.29 ± 0.35) × 10^6 M^−1
Substance: p53 Q52E: p53(35–59) mutant peptide Q52E

Ka [1]: (1.16 ± 0.10) × 10^6 M^−1
Substance: p53 T55A: p53(35–59) mutant peptide T55A

reduction in the association constant compared with wild-type p53 peptide [1, 4]: 55%
Ka [1]: (0.53 ± 0.09) × 10^6 M^−1
Substance: p53 F54S: p53(35–59) with mutation of Phe54 to serine
